From PubChem BioAssay (NCI)
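Exposure lasted 48 hours, with cells grown in 96-well plates and compounds tested at five concentrations. TGI: total growth inhibition.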

Columns and labels:
Assay in all cases: NCI anticancer screen, dose series, 48 h
DU-145 prostate = test system: DU-145 prostate
SW-620 colon = test system: SW-620 colon
HT29 colon = test system: HT29 colon
CCRF-CEM leukemia = test system: CCRF-CEM leukemia
OVCAR-3 ovarian = test system: OVCAR-3 ovarian
KM12 colon = test system: KM12 colon
EKVX NSCLC = test system: EKVX NSCLC
UACC-257 melanoma = test system: UACC-257 melanoma
MDA-MB-231 breast = test system: MDA-MB-231 breast
PC-3 prostate = test system: PC-3 prostate
A498 renal = test system: A498 renal
HCT-116 colon = test system: HCT-116 colon
MDA-MB-435 = test system: MDA-MB-435
K-562 leukemia = test system: K-562 leukemia
UO-31 renal = test system: UO-31 renal
SK-MEL-5 melanoma = test system: SK-MEL-5 melanoma
SNB-19 CNS = test system: SNB-19 CNS
HS 578T breast = test system: HS 578T breast
U251 CNS = test system: U251 CNS
MCF7 breast = test system: MCF7 breast
SK-MEL-28 melanoma = test system: SK-MEL-28 melanoma
SF-295 CNS = test system: SF-295 CNS
ACHN renal = test system: ACHN renal
T-47D breast = test system: T-47D breast
SN12C renal = test system: SN12C renal
SK-MEL-2 melanoma = test system: SK-MEL-2 melanoma
NCI-H23 lung = test system: NCI-H23 lung
SF-539 CNS = test system: SF-539 CNS
OVCAR-4 ovarian = test system: OVCAR-4 ovarian
MOLT-4 leukemia = test system: MOLT-4 leukemia
M14 melanoma = test system: M14 melanoma
MALME-3M melanoma = test system: MALME-3M melanoma
HCC-2998 colon = test system: HCC-2998 colon
SR leukemia = test system: SR leukemia
RXF 393 renal = test system: RXF 393 renal
IGROV1 ovarian = test system: IGROV1 ovarian
SK-OV-3 ovarian = test system: SK-OV-3 ovarian
SNB-75 CNS = test system: SNB-75 CNS
HL-60(TB) leukemia = test system: HL-60(TB) leukemia
RPMI-8226 leukemia = test system: RPMI-8226 leukemia
CAKI-1 renal = test system: CAKI-1 renal
OVCAR-8 ovarian = test system: OVCAR-8 ovarian
NCI-H226 lung = test system: NCI-H226 lung
BT-549 breast = test system: BT-549 breast
COLO 205 colon = test system: COLO 205 colon
NCI/ADR-RES ovarian = test system: NCI/ADR-RES ovarian
786-0 renal = test system: 786-0 renal
A549 NSCLC = test system: A549 NSCLC
NCI-H460 lung = test system: NCI-H460 lung
OVCAR-5 ovarian = test system: OVCAR-5 ovarian
TK-10 renal = test system: TK-10 renal
UACC-62 melanoma = test system: UACC-62 melanoma
MDA-N = test system: MDA-N
HCT-15 colon = test system: HCT-15 colon
SF-268 CNS = test system: SF-268 CNS
HOP-62 NSCLC = test system: HOP-62 NSCLC
LOX IMVI melanoma = test system: LOX IMVI melanoma
NCI-H522 lung = test system: NCI-H522 lung

Measured: TGI

CCC1=NC(C(F)(F)F)(C(F)(F)F)N=C(/N=C(/N)N(C)C(C(C)C)P(=O)(OC(C)C)OC(C)C)O1 (stereo not drawn)
> 100 µM: all assays above
